Test results published in patent US20240108634A1, “COMPOSITIONS AND METHODS FOR INHIBITING YAP” (The United States Government as represented by the …, priority 2021, published 2024).

How the values were obtained:
T98G cells = assay: Cell Titer-Glo sensitivity of T98G cells with YAP1 knockdown or overexpression; type: cell-based, human; conditions: 72 h
From the text: Nuclear and cytoplasmic fractions were immunoblotted for YAP, HSP90 and lamin B2. FIG. 4B show quantification of nuclear YAP expression levels from a as determined by densitometric analyses. Relative nuclear YAP1 expression in U87 cells was arbitrarily assigned a value of 1. Nuclear YAP expression in the cell lines is shown as mean+S.D., n=3. […] Relative nuclear YAP expression was obtained from FIG. 4B above. […] Data represent mean±S.D. of three independent experiments (*, P<0.05).
Cell proliferation, clonogenic, migration, invasion and apoptosis assays. Cell proliferation was determined via Cell Titer-Glo® luminescent cell assays (Promega). Clonogenic assays were done by plating a total of 1,000 cells per well in 24-well plates in a total volume of 400 μL using a two-layered soft agar system as previously described (Masri J, et al. (2007) Cancer Res 67: 11712-11720). […]
Increased YAP expression directly correlates with NSC682769 sensitivity in GBM cells. […] To examine whether differences in YAP expression may alter sensitivity to NSC682769, the relative expression of nuclear versus cytoplasmic YAP was determined in a panel of GBM lines (FIG. 4A). […] Cell viability was then determined using ATP-release assays on these lines over a wide range of NSC682769 concentrations and IC50s calculated (FIG. 4C). […]

[1] = Brain and plasma concentrations by HPLC after IV administration; type: in vivo, C57/BL6 mice; conditions: single IV administration
Protocol: FIGS. 9A-B show GEMM survival and brain/blood plasma concentrations following treatment with NSC682769. […] C57/BL6 mice were administered NSC682769 IV and mean brain and plasma concentrations were determined via HPLC analyses. (n=5).
Protein and mRNA analyses, immunoprecipitation, in vitro bead-coupled inhibitor binding assays and HPLC analyses. Western blot analyses were performed as previously described (Artinian N, et al. (2015) J Biol Chem 290: 19387-19401). Briefly, cells were lysed in RIPA (lysis) buffer containing protease inhibitor cocktail and phosSTOP™ phosphatase inhibitor cocktail (Roche) and extracts resolved by SDS-PAGE. Proteins were transferred to PVDF membranes and incubated with the indicated antibodies. Antigen-antibody complexes were detected using appropriate horseradish peroxidase-conjugated secondary antibodies (GE Healthcare) and enhanced chemiluminescence (Amersham ECL Prime). […] For quantitative RT-PCR, extraction of RNA was performed using Trizol® (Life Technologies). Total RNA was then quantified and integrity assessed using an Agilent 2100 Bioanalyzer (Agilent Technology). […] SYBR® Green quantitative PCR (Millipore Sigma) was performed in triplicate in 96-well optical plates on an ABI Prism 7000 Sequence Detection System (Life Technologies) according to the manufacturer's instructions. […]

For `COc1ccc(-c2cc(-c3ccccc3)nc3c2CC(=O)Nc2ccccc2-3)cc1OC` [NSC682769], which “Sensitivity versus parental T98G line” value (T98G cells; T98G with YAP1 knocked down (shRNA)) is on record?
The value was “relatively resistant”.

What about the “Sensitivity versus parental T98G line” value (T98G cells; T98G with YAP1 overexpressed) of the same compound?
The value was “significantly more sensitive”.

And the “Cb/Cp ratios (brain/plasma)” value [1]?
Its value is “consistent with BBB penetrance”.

What about the “Peak value in brain tissue” value ([1]; at 5 min post-administration) of the same compound?
The value was 6.22 µg/g.
